Assay: Human HepG2 cell viability assay in 384 well format
Type: toxicity, cell-based
Design: dose 125 nL, time 70.5 hour; concentration not given beside the values
Settings: HepG2 cells, read-out: Inhibition

Row | Structure (SMILES) | cytotoxicity at 70.5 h [%]
1 | COCC1COCCC12CCN(C(=O)COc1ccccc1C)CC2 (stereo unspecified) | -2.98
2 | c1cnc(N2CCC3(COCc4cnc(N5CCOCC5)nc43)C2)nc1 (stereo unspecified) | -16.6
3 | CC(C)Nc1ccc2nc(C3CCNCC3)nn2c1 | 9.18
4 | O=C(C1CC1)N1CCC2(COCc3cnc(N4CCOCC4)nc32)C1 (stereo unspecified) | -12.6
5 | Cn1nnc2c1C(COCC1CC1)CN(C(=O)Cc1cccs1)C2 (stereo unspecified) | -19.3
6 | CN(C)C(=O)C1OC2(CCN(C(=O)N(C)C)CC2)c2ccccc21 (stereo unspecified) | -19.3
7 | CN(C)C(=O)C1OC2(CCN(C(=O)c3ccoc3)CC2)c2ccccc21 (stereo unspecified) | -14.7
8 | COCC1CN(C(=O)Cc2cccs2)Cc2nnn(C)c21 (stereo unspecified) | -14.9
9 | Cc1nc(N2CCCC2)nc2c1CCN(C(=O)NC(C)C)CC2 | 30.9
10 | CC(C)NC(=O)c1cc2c(s1)CCN2C(=O)CN(C)C | -4.91
11 | CC(C)NC(=O)C1CN(C(=O)Cc2ccccc2)CC12CCOCC2 (stereo unspecified) | -13.2
12 | COc1ncccc1C(=O)N1CC[C@H]2C[C@@H](c3nccs3)O[C@@H]2C1 | -23.1
13 | O=C(c1ccccc1)N1CC[C@H]2C[C@@H](c3nccs3)O[C@@H]2C1 | -17.1
14 | CC(C)NC(=O)C1CN(C(=O)Cc2cccc(F)c2)CC12CCOCC2 (stereo unspecified) | 10.1
15 | CN(C)S(=O)(=O)N1C[C@H]2C[C@H](C(=O)Nc3ccccc3)[C@@H](C1)O2 | -5.82
16 | CC(C)CC(=O)N1CC[C@H]2C[C@H](c3nccs3)O[C@@H]2C1 | 2.63
17 | Cc1nc(N2CCCC2)nc2c1CCN(C(=O)NC1CCCC1)CC2 | 1.4
18 | O=C(Nc1ccccc1)[C@H]1C[C@@H]2CN(S(=O)(=O)c3ccccc3)C[C@H]1O2 | -10.9
19 | CCC1=N[C@@]2(CC[C@@H]3CN(CC(=O)N(C)C)C[C@@H]32)C(=O)N1CC(C)C | -6.91
20 | Cc1cc(CN2CCC3(CC2)COC(COc2ccccn2)C3)no1 (stereo unspecified) | 43
21 | c1cncc(CN2CCn3cc(Cn4cccn4)nc3C2)c1 | -7.42
22 | CNC(=O)[C@H]1C[C@@H]2CN(C(=O)Nc3ccccc3)C[C@H]1O2 | -25.2
23 | Cc1nc(CN2CC3(CCN(c4nccs4)C3)CC2=O)cs1 (stereo unspecified) | -1.92

Row | Structure (SMILES) | cytotoxicity at 70.5 h [%]
24 | CCNc1ncc2c(n1)CN(c1ccc(C)c(C)c1)C2=O | -11.2
25 | CCNc1ncc2c(n1)CN(c1ccc(CC)cc1)C2=O | -8.79
26 | Cc1nn(C)c2cnn(CCCNS(=O)(=O)Cc3ccccc3)c12 | 10.4
27 | CC(C)(C)NC(=O)CCn1ncc2c(Cl)cccc21 | -5.97
28 | Cc1nn(C)c(C)c1CNC(=O)CCn1ncc2c(Cl)cccc21 | -1.2
29 | CCn1nc(C)c2ncnc(N3CCCC(C)C3)c21 (stereo unspecified) | 8.26
30 | CCn1cc(Cl)c(C(=O)Nc2ccc3c(c2)C(C)(C)C(=O)N3C)n1 | -16.6
31 | Cc1cc(NC(=O)CCn2nc(C)c3ccccc32)n(C(C)C)n1 | -18
32 | CCn1ccc(NC(=O)CN2C(=O)C(C)(C)c3ccccc32)n1 | -11.1
33 | CCCc1nc(NCCCn2cccn2)c2c(n1)c(C)nn2CC | -4.19
34 | CCCc1nc(Nc2cccc(C(N)=O)c2)c2c(n1)c(C)nn2CC | -4.15
35 | CCCc1nc(N2CCCC(C)C2)c2c(n1)c(C)nn2CC (stereo unspecified) | -4
36 | CCCc1nc(N2CCCCC2)c2c(n1)c(C)nn2CC | 15.4
37 | Cc1nn(C)c2c(N3CCN(C)CC3)nc(C3CC3)nc12 | -11.8
38 | CC(C)(C)NC(=O)COc1ccc(CNCCOc2ccccn2)cc1 | -2.01
39 | CCCc1nc(NCCCn2ccnc2)c2c(n1)c(C)nn2CC | -11.1
40 | CCn1nc(C)c2nc(C(C)C)nc(N3CCOCC3)c21 | 11.2
41 | CCn1nc(C)c2nc(C(C)C)nc(NCCCn3ccnc3)c21 | -17.9
42 | CSc1ncnc(NCc2cccs2)c1C#N | -10.7
43 | Cc1cccc2c1cnn2CCCNC(=O)c1ccnn1C | -12.7
44 | Cc1cccc2c1cnn2CCCNC(=O)C1CC1 | -4.27
45 | CCCC(=O)NCCCn1ncc2c(C)cccc21 | -12.9
46 | CCn1cc(NC(=O)C2CCC(=O)N2Cc2ccco2)cn1 (stereo unspecified) | -6.35

Row | Structure (SMILES) | cytotoxicity at 70.5 h [%]
47 | Cc1cc(C(=O)N(C)Cc2cccs2)nc(N2CCCCC2)n1 | -6.38
48 | CCN(CC)C(=O)c1nnsc1-c1ccccc1 | -10.3
49 | CN(C)CCCNC(=O)c1nnsc1-c1ccccc1 | -8.68
50 | CC(C)CNC(=O)c1nnsc1-c1ccccc1 | -11.5
51 | CCOc1cc(C(=O)N2CCOCC2)cc2occc12 | 22.3
52 | CCOc1cc(C(=O)N2CCN(CC)CC2)cc2occc12 | -3.29
53 | CCN(CC)CCNS(=O)(=O)c1cccc(CSC)c1 | -8.72
54 | CCN(CC)c1nc(C)cc(C(=O)Nc2cnn(CC)c2)n1 | -12.1
55 | CCn1ccc(NC(=O)CCc2c(C)nn(C)c2C)n1 | 18.2
56 | Cc1ccc(CN2C(=O)CCC2C(=O)Nc2cnn(C)c2)o1 (stereo unspecified) | -4.24
57 | Cc1cc(C(=O)N(C)Cc2cccs2)nc(N2CCCC2)n1 | -6.81
58 | CCOCc1cccc(S(=O)(=O)Nc2ccn(CC)n2)c1 | -0.0962
59 | COc1cccc(CNCc2ccccc2Cl)c1O | 26.4
60 | COc1cccc(CNCc2ccc(F)c(Cl)c2)c1O | 27
61 | CCCn1cc(C(=O)n2nc(C)cc2C)c(S(=O)(=O)N2CCSCC2)n1 | -7.23
62 | O=C(NCCc1ccccn1)c1[nH]nc2c1CCCC2 | 3.78
63 | CSc1ccc(-c2noc(CN(CC(C)C)CC(C)C)n2)cc1 | -12.7
64 | CSc1nc2ccsc2c(=O)n1CC(=O)NC1CCCC1 | -6.44
65 | CCc1cc(=O)n(CC(=O)N2CCCC2)c(-c2cccc(F)c2)n1 | 4.18
66 | CCc1cc(=O)n(CC(=O)N2CCC(C)CC2)c(-c2cccc(F)c2)n1 | -3.1
67 | CCc1cc(=O)n(CC(=O)NCC2CCCO2)c(-c2cccc(F)c2)n1 (stereo unspecified) | 2.39
68 | CCOC(=O)C1CCN(c2nccc(-n3nc(C)cc3C)n2)CC1 | -3.45
69 | O=C(c1nn[nH]c1Nc1ccc(Cl)cc1)N1CCCCCC1 | -10.3

Row | Structure (SMILES) | cytotoxicity at 70.5 h [%]
70 | CC(C)N1CCN(C(=O)c2[nH]nnc2Nc2ccccc2F)CC1 | 16.4
71 | O=C(c1nn[nH]c1Nc1cccc(Cl)c1)N1CCSCC1 | 26.2
72 | Cc1cc(=O)n(CC(=O)NCC2CCCO2)c(-c2ccccc2)n1 (stereo unspecified) | 2.72
73 | COCCCNC(=O)Cn1c(-c2cccc(Cl)c2)nc(C)cc1=O | 2.43
74 | CCc1cc(=O)n(CC(=O)N2CCCC2)c(-c2ccccc2)n1 | -5.29
75 | Cc1nc(N2CCCCC2)ncc1-c1cc(O)nc(N2CCCCC2)n1 | -0.353
76 | CCC(c1ccccc1)c1nn2c(CN(CC)CC)nnc2s1 (stereo unspecified) | -5.77
77 | Cc1ncc2c(n1)CCCC2NC(=O)c1cnn(Cc2ccccc2)c1 (stereo unspecified) | -12.8
78 | COCC(=O)N1CCC([C@@H]2C[C@H](C(F)(F)F)n3nc(C)cc3N2)CC1 | -3.42
79 | Cc1nc(C)n(CCC(=O)N2CCc3ncc(Cl)cc3C2)n1 | 6.03
80 | O=C1CN(C(=O)CCn2c(C(F)(F)F)cc3cccnc32)CCN1 | 4.91
81 | O=C(CCn1c(C(F)(F)F)cc2cccnc21)N1CCOCC1 | 0.815
82 | O=C(NC[C@]12COC[C@H]1CN(Cc1ccco1)C2)c1ccccc1 | -14.6
83 | Cc1cccc(CN2CC[C@@H]3[C@@H]2CCN3C(=O)c2cc(C)oc2C)n1 | 13.1
84 | O=C(C[C@@H]1COC[C@H]2CN(Cc3ccc(F)cc3)C[C@@H]12)N1CCCC1 | 2.93
85 | COCC(=O)N1CCn2c(COc3cccnc3)cnc2C1C (stereo unspecified) | 6.09
86 | O=S(=O)(C1CC1)N1C[C@@H]2COC[C@]2(COc2ccccn2)C1 | -18.1
87 | CS(=O)(=O)N1C[C@H]2CCC[C@@]2(COc2ccccn2)C1 | -16.1
88 | CCS(=O)(=O)N1CCCC2(COCCN(c3ccccn3)C2)C1 (stereo unspecified) | -18.6
89 | Cn1cc(N2CC3(CCN(Cc4ccccc4)CC3)OCC2=O)cn1 | 52.7
90 | CC(C)NC(=O)C1CN(Cc2ccc(F)cc2)CC12CCOCC2 (stereo unspecified) | -10.5
91 | Cn1cc(N2CC3(CCN(CC4CC4)CC3)OCC2=O)cn1 | -12.5
92 | COC[C@@H]1CCC[C@@]12CN(Cc1ccco1)CCO2 | -15.7

Row | Structure (SMILES) | cytotoxicity at 70.5 h [%]
93 | Cc1nc(CN2CC3(CCN(c4cnccn4)C3)CC2=O)cs1 (stereo unspecified) | -10.3
94 | COCCN1CC[C@H](OC)[C@@H]1Cc1ccccc1 | -0.421
95 | CCC(CC)C(=O)N1CCOC2(COCCN(CC(=O)NC)C2)C1 (stereo unspecified) | -11.7
96 | O=C(Cc1ccccn1)N1CCc2ncnc(NC3CCC3)c2CC1 | -9.73
97 | Cc1cccc(CN2CC[C@@H]3[C@@H]2CCN3C(=O)c2ccoc2C)n1 | 0.304
98 | Cc1ccc2c(n1)N(CC1CC1)CCN(C(=O)c1ccncc1F)C2 | 0.364
99 | CC(C)CN1CCN(C(=O)c2ccncc2F)Cc2cccnc21 | -9.62
100 | COC1COC2(CCN(Cc3ccc4ccccc4n3)CC2)C1 (stereo unspecified) | -12.9
101 | Fc1cccnc1O[C@@H]1CN(Cc2ccco2)[C@@H]2CCCO[C@@H]21 | -12.4
102 | Cc1noc(C)c1CN1C[C@H](OCc2ccncc2)[C@H]2OCCC[C@H]21 | -13.2
103 | Cc1cnc(N2CCOCC3(CCN(c4ccccn4)C3)C2)nc1 (stereo unspecified) | -9.64
104 | c1ccc(N2CCC3(COCCN(c4ncccn4)C3)C2)nc1 (stereo unspecified) | -10
105 | Cn1cc(CN2C[C@@H]3COC[C@H](C(=O)Nc4cccnc4)[C@@H]3C2)cn1 | 44.2
106 | CN(C)C(=O)CN1CCn2cc(Cn3cccn3)nc2C1 | -10.4
107 | c1ccc(CCN2CCn3cc(Cn4cccn4)nc3C2)cc1 | -10.6
108 | Cc1ccc(CN2CCc3onc(COc4cccnc4)c3C2)s1 | -26.9
109 | c1ccc(CO[C@H]2CO[C@@]3(CCCN(Cc4cccnc4)C3)C2)nc1 | -24.8
110 | COc1ncccc1CN1C[C@@H]2COC[C@]2(COc2ccccn2)C1 | -20.4
111 | CCOCc1cc(CN2CCn3c(CO)nnc3C2)ccc1OC | 1.27

— ChEMBL document CHEMBL3507680, “University of Dundee, Gates Library screen for HepG2 cell viability”
